Source: patent publication US20220153746A1, “NITROGEN OXIDE-DONATING PDE-5 AND/OR PDE-6 INHIBITOR COMPOUNDS, AND USES THEREOF” (ILDONG PHARMACEUTICAL CO., LTD., priority 2020, published 2022)

Columns and labels:
[1] = target: human PDE-5A1 (Homo sapiens, UniProt O76074); experiment: Human PDE-5A1 inhibition assay (fluorescence polarization, FAM-cGMP); format: biochemical; details: read-out: IC50 (μM) PDE5A1
[2] = target: human PDE-6C (Homo sapiens, UniProt P51160); experiment: Human PDE-6C inhibition assay (fluorescence polarization, FAM-cGMP); format: biochemical; details: read-out: IC50 (μM) PDE6C
Chain of human PDE-6C (P51160 whole entry): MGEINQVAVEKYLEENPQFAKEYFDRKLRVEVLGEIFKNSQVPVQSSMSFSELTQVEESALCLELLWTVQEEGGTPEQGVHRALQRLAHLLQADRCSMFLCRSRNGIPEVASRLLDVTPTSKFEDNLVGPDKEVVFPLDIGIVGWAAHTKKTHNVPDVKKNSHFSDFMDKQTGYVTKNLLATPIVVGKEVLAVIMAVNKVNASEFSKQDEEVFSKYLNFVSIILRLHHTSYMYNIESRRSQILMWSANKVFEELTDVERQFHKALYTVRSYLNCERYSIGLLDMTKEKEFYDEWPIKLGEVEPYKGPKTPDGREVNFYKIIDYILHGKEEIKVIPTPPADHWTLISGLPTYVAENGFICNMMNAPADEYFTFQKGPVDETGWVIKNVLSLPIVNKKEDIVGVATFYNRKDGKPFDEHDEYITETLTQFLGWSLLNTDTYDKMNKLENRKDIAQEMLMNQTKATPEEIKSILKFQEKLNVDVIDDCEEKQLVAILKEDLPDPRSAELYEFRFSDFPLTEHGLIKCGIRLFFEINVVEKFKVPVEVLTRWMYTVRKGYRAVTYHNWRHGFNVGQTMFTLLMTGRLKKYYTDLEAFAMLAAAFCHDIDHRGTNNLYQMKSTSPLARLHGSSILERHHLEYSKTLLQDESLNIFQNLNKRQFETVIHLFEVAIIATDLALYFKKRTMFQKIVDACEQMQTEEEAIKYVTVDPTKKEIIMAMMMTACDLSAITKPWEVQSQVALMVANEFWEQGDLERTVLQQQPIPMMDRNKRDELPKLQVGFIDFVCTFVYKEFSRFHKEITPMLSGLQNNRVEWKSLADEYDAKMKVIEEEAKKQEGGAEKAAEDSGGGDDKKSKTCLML

CCCc1nn(C)c2c(=O)[nH]c(-c3cc(S(=O)(=O)N4CC(O)C4)ccc3OCC)nc12 [Compound 1, 5-(2-ethoxy-5-((3-hydroxyazetidin-1-yl)sulfonyl)phenyl)-1-methyl-3-propyl-1,6-dihydro-7H-pyrazolo[4,3-d] pyrimidin-7-one]
IC50 [1]: 0.01 to 0.1 µM
IC50 [2]: 0.01 to 0.1 µM

CCCc1nn(C)c2c(=O)[nH]c(-c3cc(S(=O)(=O)N4CC(CO)C4)ccc3OCC)nc12 [Compound 2, 5-(2-ethoxy-5-((3-(hydroxymethyl)azetidin-1-yl)sulfonyl)phenyl)-1-methyl-3-propyl-1,6-dihydro-7H-pyrazolo[4,3-d]pyrimidin-7-one]
IC50 [1]: 0.01 to 0.1 µM
IC50 [2]: 0.01 to 0.1 µM

CCCc1nn(C)c2c(=O)[nH]c(-c3cc(S(=O)(=O)N4CC(CCO)C4)ccc3OCC)nc12 [Compound 3, 5-(2-ethoxy-5-((3-(2-hydroxyethyl)azetidin-1-yl)sulfonyl)phenyl)-1-methyl-3-propyl-1,6-dihydro-7H-pyrazolo[4,3-d]pyrimidin-7-one]
IC50 [1]: < 0.01 µM
IC50 [2]: < 0.01 µM

CCCc1nn(C)c2c(=O)[nH]c(-c3cc(S(=O)(=O)N4CC(CN)C4)ccc3OCC)nc12 [Compound 5, 5-(5-((3-(aminomethyl)azetidin-1-yl)sulfonyl)-2-ethoxyphenyl)-1-methyl-3-propyl-1,6-dihydro-7H-pyrazolo[4,3-d] pyrimidin-7-one]
IC50 [1]: > 0.1 µM
IC50 [2]: 0.01 to 0.1 µM

CCCc1nn(C)c2c(=O)[nH]c(-c3cc(S(=O)(=O)NC4CN(CCO)C4)ccc3OCC)nc12 [Compound 6, 4-ethoxy-N-(1-(2-hydroxyethyl)azetidin-3-yl)-3-(1-methyl-7-oxo-3-propyl-6,7-dihydro-1H-pyrazolo[4,3-d]pyrimidin-5-yl)benzenesulfonamide]
IC50 [1]: 0.01 to 0.1 µM
IC50 [2]: 0.01 to 0.1 µM

CCCc1nn(C)c2c(=O)[nH]c(-c3cc(S(=O)(=O)NC4CN(CCCO)C4)ccc3OCC)nc12 [Compound 7, 4-ethoxy-N-(1-(3-hydroxypropyl)azetidin-3-yl)-3-(1-methyl-7-oxo-3-propyl-6,7-dihydro-1H-pyrazolo[4,3-d]pyrimidin-5-yl)benzenesulfonamide]
IC50 [1]: 0.01 to 0.1 µM
IC50 [2]: 0.01 to 0.1 µM

CCCc1nn(C)c2c(=O)[nH]c(-c3cc(S(=O)(=O)NC4CN(CCCCO)C4)ccc3OCC)nc12 [Compound 8, 4-ethoxy-N-(1-(4-hydroxybutyl)azetidin-3-yl)-3-(1-methyl-7-oxo-3-propyl-6,7-dihydro-1H-pyrazolo[4,3-d]pyrimidin-5-yl)benzenesulfonamide]
IC50 [1]: 0.01 to 0.1 µM
IC50 [2]: 0.01 to 0.1 µM

CCCc1nn(C)c2c(=O)[nH]c(-c3cc(S(=O)(=O)N4CC(NCCO)C4)ccc3OCC)nc12 [Compound 9, 5-(2-ethoxy-5-((3-((2-hydroxyethyl)amino)azetidin-1-yl)sulfonyl)phenyl)-1-methyl-3-propyl-1,6-dihydro-7H-pyrazolo[4,3-d]pyrimidin-7-one]
IC50 [1]: 0.01 to 0.1 µM
IC50 [2]: 0.01 to 0.1 µM

CCCc1nc(C)c2c(=O)[nH]c(-c3cc(S(=O)(=O)N4CC(O)C4)ccc3OCC)nn12 [Compound 41, 2-(2-ethoxy-5-((3-hydroxyazetidin-1-yl)sulfonyl)phenyl)-5-methyl-7-propylimidazo[5,1-f][1,2,4]triazin-4(3H)-one]
IC50 [1]: < 0.01 µM

CCCc1nc(C)c2c(=O)[nH]c(-c3cc(S(=O)(=O)N4CC(CO)C4)ccc3OCC)nn12 [Compound 42, 2-(2-ethoxy-5-((3-(hydroxymethyl)azetidin-1-yl)sulfonyl)phenyl)-5-methyl-7-propylimidazo[5,1-f][1,2,4]triazin-4(3H)-one]
IC50 [1]: < 0.01 µM

CCCc1nc(C)c2c(=O)[nH]c(-c3cc(S(=O)(=O)N4CC(CCO)C4)ccc3OCC)nn12 [Compound 43, 2-(2-ethoxy-5-((3-(2-hydroxyethyl)azetidin-1-yl)sulfonyl)phenyl)-5-methyl-7-propylimidazo[5,1-f][1,2,4]triazin-4(3H)-one]
IC50 [1]: < 0.01 µM

CCCc1nc(C)c2c(=O)[nH]c(-c3cc(S(=O)(=O)N4CC(CCCO)C4)ccc3OCC)nn12 [Compound 44, 2-(2-ethoxy-5-((3-(3-hydroxypropyl)azetidin-1-yl)sulfonyl)phenyl)-5-methyl-7-propylimidazo[5,1-f][1,2,4]triazin-4(3H)-one]
IC50 [1]: < 0.01 µM

CCCc1nc(C)c2c(=O)[nH]c(-c3cc(S(=O)(=O)N4CC(CN)C4)ccc3OCC)nn12 [Compound 45]
IC50 [1]: < 0.01 µM

CCCc1nc(C)c2c(=O)[nH]c(-c3cc(S(=O)(=O)NC4CN(CCO)C4)ccc3OCC)nn12 [Compound 46, 4-ethoxy-N-(1-(2-hydroxyethyl)azetidin-3-yl)-3-(5-methyl-4-oxo-7-propyl-3,4-dihydroimidazo[5,1-f][1,2,4]triazin-2-yl)benzenesulfonamide]
IC50 [1]: < 0.01 µM

CCCc1nc(C)c2c(=O)[nH]c(-c3cc(S(=O)(=O)NC4CN(CCCO)C4)ccc3OCC)nn12 [Compound 47, 4-ethoxy-N-(1-(3-hydroxypropyl)azetidin-3-yl)-3-(5-methyl-4-oxo-7-propyl-3,4-dihydroimidazo[5,1-f][1,2,4]triazin-2-yl)benzenesulfonamide]
IC50 [1]: < 0.01 µM

CCCc1nc(C)c2c(=O)[nH]c(-c3cc(S(=O)(=O)N4CC(NCCO)C4)ccc3OCC)nn12 [Compound 49, 2-(2-ethoxy-5-((3-((2-hydroxyethyl)amino)azetidin-1-yl)sulfonyl)phenyl)-5-methyl-7-propylimidazo[5,1-f][1,2,4]triazin-4(3H)-one]
IC50 [1]: < 0.01 µM

CCCc1nc(C)c2c(=O)[nH]c(-c3cc(S(=O)(=O)N4CC(NCCCO)C4)ccc3OCC)nn12 [Compound 50, 2-(2-ethoxy-5-((3-((3-hydroxypropyl)amino)azetidin-1-yl)sulfonyl)phenyl)-5-methyl-7-propylimidazo[5,1-f][1,2,4]triazin-4(3H)-one]
IC50 [1]: < 0.01 µM

CCCc1nc(C)c2c(=O)[nH]c(-c3cc(S(=O)(=O)N4CC(N(C)CCO)C4)ccc3OCC)nn12 [Compound 52, 2-(2-ethoxy-5-((3-((2-hydroxyethyl)(methyl)amino)azetidin-1-yl)sulfonyl)phenyl)-5-methyl-7-propylimidazo[5,1-f][1,2,4]triazin-4(3H)-one]
IC50 [1]: < 0.01 µM

CCCc1nc(C)c2c(=O)[nH]c(-c3cc(S(=O)(=O)N4CC(N(C)CCCO)C4)ccc3OCC)nn12 [Compound 53, 2-(2-ethoxy-5-((3-((3-hydroxypropyl)(methyl)amino)azetidin-1-yl)sulfonyl)phenyl)-5-methyl-7-propylimidazo[5,1-f][1,2,4]triazin-4(3H)-one]
IC50 [1]: < 0.01 µM

CCCc1nc(C)c2c(=O)[nH]c(-c3cc(S(=O)(=O)N4CC(O[N+](=O)[O-])C4)ccc3OCC)nn12 [Compound 55, 1-((4-ethoxy-3-(5-methyl-4-oxo-7-propyl-3,4-dihydroimidazo[5,1-f][1,2,4]triazin-2-yl)phenyl)sulfonyl)azetidin-3-yl nitrate]
IC50 [1]: < 0.01 µM

CCCc1nc(C)c2c(=O)[nH]c(-c3cc(S(=O)(=O)N4CC(CO[N+](=O)[O-])C4)ccc3OCC)nn12 [Compound 56, (1-((4-ethoxy-3-(5-methyl-4-oxo-7-propyl-3,4-dihydroimidazo[5,1-f][1,2,4]triazin-2-yl)phenyl)sulfonyl)azetidin-3-yl)methyl nitrate]
IC50 [1]: < 0.01 µM

CCCc1nc(C)c2c(=O)[nH]c(-c3cc(S(=O)(=O)N4CC(CCO[N+](=O)[O-])C4)ccc3OCC)nn12 [Compound 57, 2-(1-((4-ethoxy-3-(5-methyl-4-oxo-7-propyl-3,4-dihydroimidazo[5,1-f][1,2,4]triazin-2-yl)phenyl)sulfonyl)azetidin-3-yl) ethyl nitrate]
IC50 [1]: < 0.01 µM

CCCc1nc(C)c2c(=O)[nH]c(-c3cc(S(=O)(=O)N4CC(CCCO[N+](=O)[O-])C4)ccc3OCC)nn12 [Compound 58, 3-(1-((4-ethoxy-3-(5-methyl-4-oxo-7-propyl-3,4-dihydroimidazo[5,1-f][1,2,4]triazin-2-yl)phenyl)sulfonyl)azetidin-3-yl) propyl nitrate]
IC50 [1]: < 0.01 µM

CCCc1nc(C)c2c(=O)[nH]c(-c3cc(S(=O)(=O)NC4CN(CCO[N+](=O)[O-])C4)ccc3OCC)nn12 [Compound 59, 2-(3-((4-ethoxy-3-(5-methyl-4-oxo-7-propyl-3,4-dihydroimidazo[5,1-f][1,2,4]triazin-2-yl)phenyl)sulfonamido)azetidin-1-yl)ethyl nitrate]
IC50 [1]: < 0.01 µM

CCCc1nc(C)c2c(=O)[nH]c(-c3cc(S(=O)(=O)NC4CN(CCCO[N+](=O)[O-])C4)ccc3OCC)nn12 [Compound 60, 3-(3-((4-ethoxy-3-(5-methyl-4-oxo-7-propyl-3,4-dihydroimidazo[5,1-f][1,2,4]triazin-2-yl)phenyl)sulfonamido)azetidin-1-yl)propyl nitrate]
IC50 [1]: < 0.01 µM

CCCc1nc(C)c2c(=O)[nH]c(-c3cc(S(=O)(=O)N4CC(NCCO[N+](=O)[O-])C4)ccc3OCC)nn12 [Compound 61, 2-((1-((4-ethoxy-3-(5-methyl-4-oxo-7-propyl-3,4-dihydroimidazo[5,1-f][1,2,4]triazin-2-yl)phenyl)sulfonyl)azetidin-3-yl)amino)ethyl nitrate]
IC50 [1]: < 0.01 µM

CCCc1nc(C)c2c(=O)[nH]c(-c3cc(S(=O)(=O)N4CC(NCCCO[N+](=O)[O-])C4)ccc3OCC)nn12 [Compound 62, 3-((1-((4-ethoxy-3-(5-methyl-4-oxo-7-propyl-3,4-dihydroimidazo[5,1-f][1,2,4]triazin-2-yl)phenyl)sulfonyl)azetidin-3-yl)amino)propyl nitrate]
IC50 [1]: < 0.01 µM

CCCc1nc(C)c2c(=O)[nH]c(-c3cc(S(=O)(=O)N4CC(N(C)CCO[N+](=O)[O-])C4)ccc3OCC)nn12 [Compound 63, 2-((1-((4-ethoxy-3-(5-methyl-4-oxo-7-propyl-3,4-dihydroimidazo[5,1-f][1,2,4]triazin-2-yl)phenyl)sulfonyl)azetidin-3-yl)(methyl)amino)ethyl nitrate]
IC50 [1]: < 0.01 µM

CCCc1nc(C)c2c(=O)[nH]c(-c3cc(S(=O)(=O)N4CC(N(C)CCCO[N+](=O)[O-])C4)ccc3OCC)nn12 [Compound 64, 3-((1-((4-ethoxy-3-(5-methyl-4-oxo-7-propyl-3,4-dihydroimidazo[5,1-f][1,2,4]triazin-2-yl)phenyl)sulfonyl)azetidin-3-yl)(methyl)amino)propyl nitrate]
IC50 [1]: < 0.01 µM
